In this experiment the target is Recombinant human Mat2a (Homo sapiens (Human), UniProt P31153). As to the kind of experiment: Determination of Mat2A activity (384 well absorbance-based assay, Biomol Green). Format: biochemical. The settings on record: 12.5 nM Mat2A, 100 μM ATP and Methionine, 2% DMSO, 120 minutes at RT, absorbance at 635 nm; read-out: MAT2A_LEC IC50 (uM) (Num). As to the method:
Determination of Mat2A Activity
Measurement of Mat2A inhibition is performed in 384 well format absorbance-based assay. Recombinant human Mat2a (12.5 nM) and serial diluted compounds in DMSO (range of concentrations from 10 μM to 508 pM) or controls (DMSO) are incubated for 15 minutes at room temperature (RT) in assay buffer containing 50 mM HEPES pH 7.5, 50 mM KCl, 50 mM MgCl2, 0.01%Tween 20 and 10 mM DTT. The reaction is initiated by the addition of the combined substrates ATP and Methionine, each at a final concentration of 100 μM. Final assay condition are 12.5 nM Mat2A, 100 μM ATP and Methionine Substrates and 2% DMSO. After 120 minutes of incubation at RT, the reaction is stopped by the addition of Biomol Green. The absorbance signal is measured at λ=635 nm with a multiplate reader (BMG Pherastar reader or equivalent) after 30 min of equilibration at RT.

Recombinant human Mat2a, sequence (P31153 whole entry): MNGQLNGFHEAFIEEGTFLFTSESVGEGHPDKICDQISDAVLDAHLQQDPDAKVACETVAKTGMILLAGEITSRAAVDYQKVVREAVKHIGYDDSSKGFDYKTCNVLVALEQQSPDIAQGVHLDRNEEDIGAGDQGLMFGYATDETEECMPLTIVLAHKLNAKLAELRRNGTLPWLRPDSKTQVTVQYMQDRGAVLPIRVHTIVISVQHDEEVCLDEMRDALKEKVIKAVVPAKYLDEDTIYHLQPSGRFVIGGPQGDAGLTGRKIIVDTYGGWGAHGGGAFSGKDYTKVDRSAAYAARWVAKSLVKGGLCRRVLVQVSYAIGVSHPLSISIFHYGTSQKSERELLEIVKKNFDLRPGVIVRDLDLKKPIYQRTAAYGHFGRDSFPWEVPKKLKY

Regarding `Cc1cc(-c2nccc3[nH]nc(C4CC4)c23)ccc1S(C)(=O)=O` [Example 1, 3-cyclopropyl-4-(3-methyl-4-(methylsulfonyl)phenyl)-1H-pyrazolo[4,3-c]pyridine], the IC50 (commonly the concentration that inhibits the measured activity by half) was determined as 0.048 µM.

On to `COc1cc(-c2nccc3[nH]nc(C4CC4)c23)ccc1S(C)(=O)=O` [Example 2, 3-cyclopropyl-4-(3-methoxy-4-(methylsulfonyl)phenyl)-1H-pyrazolo[4,3-c]pyridine], for which the IC50 stood at 0.37 µM. Next, `CS(=O)(=O)c1ccc(-c2nccc3[nH]nc(C4CC4)c23)cc1Cl` [Example 3, 4-(3-chloro-4-(methylsulfonyl)phenyl)-3-cyclopropyl-1H-pyrazolo[4,3-c]pyridine]: 0.15 µM; `CS(=O)(=O)c1ccc(-c2nccc3[nH]nc(C4CC4)c23)cc1C(F)(F)F` [Example 4, 3-cyclopropyl-4-(4-(methylsulfonyl)-3-(trifluoromethyl)phenyl)-1H-pyrazolo[4,3-c]pyridine]: 0.24 µM; `Cc1cc(-c2nccc3[nH]nc(C4CC4)c23)ccc1S(=O)(=O)N(C)C` [Example 5, 4-(3-cyclopropyl-1H-pyrazolo[4,3-c]pyridin-4-yl)-N,N,2-trimethylbenzenesulfonamide]: 0.17 µM. As for `COc1ncc2[nH]nc(C3CC3)c2c1-c1ccc(S(C)(=O)=O)cc1` [Example 6, 3-cyclopropyl-5-methoxy-4-(4-methylsulfonylphenyl)-1H-pyrazolo[3,4-c]pyridine], the figure is 0.17 µM; as for `Cc1cc(-c2nccc3[nH]nc(C4CC4)c23)ccc1S(=O)(=O)C1CC1` [Example 7, 3-cyclopropyl-4-(4-(cyclopropylsulfonyl)-3-methylphenyl)-1H-pyrazolo[4,3-c]pyridine], 0.046 µM; as for `O=S(=O)(c1ccc(-c2nccc3[nH]nc(C4CC4)c23)cc1Cl)C1CC1` [Example 8, 4-(3-chloro-4-(cyclopropylsulfonyl)phenyl)-3-cyclopropyl-1H-pyrazolo[4,3-c]pyridine], 0.37 µM. Take `CN(C)S(=O)(=O)c1ccc(-c2nccc3[nH]nc(C4CC4)c23)cc1Cl` [Example 9, 2-chloro-4-(3-cyclopropyl-1H-pyrazolo[4,3-c]pyridin-4-yl)-N,N-dimethylbenzenesulfonamide]: the concentration for half-maximal inhibition (IC50) was 0.24 µM.

`CS(=O)(=O)c1ccc(-c2nccc3[nH]nc(C(F)(F)F)c23)cc1` [Example 11, 4-(4-(methylsulfonyl)phenyl)-3-(trifluoromethyl)-1H-pyrazolo[4,3-c]pyridine]: the IC50 was found to be 0.28 µM. Regarding `CS(=O)(=O)c1ccc(-c2nccc3[nH]nc(C4CC4)c23)cc1C(F)F` [Example 12, 3-cyclopropyl-4-(3-(difluoromethyl)-4-(methylsulfonyl)phenyl)-1H-pyrazolo[4,3-c]pyridine], the IC50 came to 0.22 µM. As to `CS(=O)(=O)c1ccc(-c2nccc3[nH]nc(C4CC4)c23)cc1CF` [Example 13, 3-cyclopropyl-4-(3-(fluoromethyl)-4-(methylsulfonyl)phenyl)-1H-pyrazolo[4,3-c]pyridine], the IC50 amounted to 0.11 µM.

With `Cc1cc(-c2nccc3[nH]cc(C4CC4)c23)ccc1S(C)(=O)=O` [Example 14, 3-cyclopropyl-4-(3-methyl-4-(methylsulfonyl)phenyl)-1H-pyrrolo[3,2-c]pyridine], the IC50 was determined as 0.099 µM.

Take `Cc1cc(-c2nccc3[nH]nc(C4CC4)c23)ccc1S(=O)(=O)C1COC1` [Example 15, 3-cyclopropyl-4-(3-methyl-4-(oxetan-3-ylsulfonyl)phenyl)-1H-pyrazolo[4,3-c]pyridine]: the IC50 was 0.27 µM. Next, `Cc1cc(-c2c(C#N)ncc3[nH]nc(C4CC4)c23)ccc1S(C)(=O)=O` [Example 16, 3-cyclopropyl-4-(3-methyl-4-(methylsulfonyl)phenyl)-1H-pyrazolo[3,4-c]pyridine-5-carbonitrile]: less than 0.013 µM.

Take `Cc1cc(-c2nccc3[nH]nc(C(C)(F)F)c23)ccc1S(C)(=O)=O` [Example 17, 3-(1,1-difluoroethyl)-4-(3-methyl-4-(methylsulfonyl)phenyl)-1H-pyrazolo[4,3-c]pyridine]: the 50% inhibitory concentration (IC50) was less than 0.013 µM.

The record behind these values is patent US12565497B2 (Hoffmann-La Roche Inc., priority 2020, dated 2026).
